From PubChem BioAssay (NCI)
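Cultured in 96-well plates, cells were exposed to test compound for 48 hours across five concentrations. TGI: concentration producing complete growth inhibition.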

Legend:
Test in all cases: NCI tumour cell line growth inhibition, 48 h
SF-295 CNS = system: SF-295 CNS
MDA-MB-231 breast = system: MDA-MB-231 breast
CCRF-CEM leukemia = system: CCRF-CEM leukemia
DU-145 prostate = system: DU-145 prostate
HL-60(TB) leukemia = system: HL-60(TB) leukemia
HCT-15 colon = system: HCT-15 colon
ACHN renal = system: ACHN renal
HOP-62 NSCLC = system: HOP-62 NSCLC
LOX IMVI melanoma = system: LOX IMVI melanoma
SK-MEL-2 melanoma = system: SK-MEL-2 melanoma
SNB-19 CNS = system: SNB-19 CNS
KM12 colon = system: KM12 colon
HCT-116 colon = system: HCT-116 colon
CAKI-1 renal = system: CAKI-1 renal
NCI/ADR-RES ovarian = system: NCI/ADR-RES ovarian
UO-31 renal = system: UO-31 renal
NCI-H460 lung = system: NCI-H460 lung
SF-539 CNS = system: SF-539 CNS
IGROV1 ovarian = system: IGROV1 ovarian
HS 578T breast = system: HS 578T breast
COLO 205 colon = system: COLO 205 colon
MCF7 breast = system: MCF7 breast
SF-268 CNS = system: SF-268 CNS
MALME-3M melanoma = system: MALME-3M melanoma
T-47D breast = system: T-47D breast
UACC-257 melanoma = system: UACC-257 melanoma
A549 NSCLC = system: A549 NSCLC
SK-OV-3 ovarian = system: SK-OV-3 ovarian
SN12C renal = system: SN12C renal
K-562 leukemia = system: K-562 leukemia
BT-549 breast = system: BT-549 breast
MDA-N = system: MDA-N
OVCAR-8 ovarian = system: OVCAR-8 ovarian
RXF 393 renal = system: RXF 393 renal
TK-10 renal = system: TK-10 renal
SK-MEL-5 melanoma = system: SK-MEL-5 melanoma
M14 melanoma = system: M14 melanoma
SK-MEL-28 melanoma = system: SK-MEL-28 melanoma
RPMI-8226 leukemia = system: RPMI-8226 leukemia
NCI-H23 lung = system: NCI-H23 lung
MDA-MB-435 = system: MDA-MB-435
OVCAR-5 ovarian = system: OVCAR-5 ovarian
SNB-75 CNS = system: SNB-75 CNS
786-0 renal = system: 786-0 renal
EKVX NSCLC = system: EKVX NSCLC
NCI-H226 lung = system: NCI-H226 lung
UACC-62 melanoma = system: UACC-62 melanoma
U251 CNS = system: U251 CNS
OVCAR-3 ovarian = system: OVCAR-3 ovarian
HT29 colon = system: HT29 colon
SW-620 colon = system: SW-620 colon
SR leukemia = system: SR leukemia
OVCAR-4 ovarian = system: OVCAR-4 ovarian
PC-3 prostate = system: PC-3 prostate
MOLT-4 leukemia = system: MOLT-4 leukemia
HCC-2998 colon = system: HCC-2998 colon
HOP-92 NSCLC = system: HOP-92 NSCLC
A498 renal = system: A498 renal

Question: For COP(=O)(OC)C(C)(C)NC(=O)NC(F)(F)F, which TGI (SF-295 CNS) is on record?
Answer: > 100 µM

Question: What about the TGI (MDA-MB-231 breast) of the same compound?
Answer: > 100 µM

Question: What about the TGI (CCRF-CEM leukemia) of the same compound?
Answer: > 100 µM

Question: And the TGI (DU-145 prostate)?
Answer: > 100 µM

Question: And the TGI (HL-60(TB) leukemia)?
Answer: > 100 µM

Question: And the TGI (HCT-15 colon)?
Answer: > 100 µM

Question: And the TGI (ACHN renal)?
Answer: > 100 µM

Question: What about the TGI (HOP-62 NSCLC) of the same compound?
Answer: > 100 µM

Question: And the TGI (LOX IMVI melanoma)?
Answer: > 100 µM

Question: And the TGI (SK-MEL-2 melanoma)?
Answer: > 100 µM

Question: And the TGI (SNB-19 CNS)?
Answer: > 100 µM

Question: What about the TGI (KM12 colon) of the same compound?
Answer: > 100 µM

Question: What about the TGI (HCT-116 colon) of the same compound?
Answer: > 100 µM

Question: And the TGI (CAKI-1 renal)?
Answer: 16.6 µM

Question: What about the TGI (NCI/ADR-RES ovarian) of the same compound?
Answer: > 100 µM

Question: And the TGI (UO-31 renal)?
Answer: > 100 µM

Question: And the TGI (NCI-H460 lung)?
Answer: > 100 µM

Question: What about the TGI (SF-539 CNS) of the same compound?
Answer: > 100 µM

Question: And the TGI (IGROV1 ovarian)?
Answer: > 100 µM

Question: What about the TGI (HS 578T breast) of the same compound?
Answer: > 100 µM

Question: And the TGI (COLO 205 colon)?
Answer: > 100 µM

Question: What about the TGI (MCF7 breast) of the same compound?
Answer: > 100 µM

Question: And the TGI (SF-268 CNS)?
Answer: > 100 µM

Question: What about the TGI (MALME-3M melanoma) of the same compound?
Answer: > 100 µM

Question: What about the TGI (T-47D breast) of the same compound?
Answer: > 100 µM

Question: And the TGI (UACC-257 melanoma)?
Answer: > 100 µM

Question: And the TGI (A549 NSCLC)?
Answer: > 100 µM

Question: What about the TGI (SK-OV-3 ovarian) of the same compound?
Answer: > 100 µM

Question: And the TGI (SN12C renal)?
Answer: > 100 µM

Question: And the TGI (K-562 leukemia)?
Answer: > 100 µM

Question: What about the TGI (BT-549 breast) of the same compound?
Answer: > 100 µM

Question: What about the TGI (MDA-N) of the same compound?
Answer: > 100 µM

Question: What about the TGI (OVCAR-8 ovarian) of the same compound?
Answer: > 100 µM

Question: And the TGI (RXF 393 renal)?
Answer: > 100 µM

Question: And the TGI (TK-10 renal)?
Answer: > 100 µM

Question: What about the TGI (SK-MEL-5 melanoma) of the same compound?
Answer: > 100 µM

Question: What about the TGI (M14 melanoma) of the same compound?
Answer: > 100 µM

Question: And the TGI (SK-MEL-28 melanoma)?
Answer: > 100 µM

Question: And the TGI (RPMI-8226 leukemia)?
Answer: > 100 µM

Question: What about the TGI (NCI-H23 lung) of the same compound?
Answer: > 100 µM

Question: What about the TGI (MDA-MB-435) of the same compound?
Answer: > 100 µM

Question: What about the TGI (OVCAR-5 ovarian) of the same compound?
Answer: > 100 µM

Question: And the TGI (SNB-75 CNS)?
Answer: > 100 µM

Question: And the TGI (786-0 renal)?
Answer: > 100 µM

Question: And the TGI (EKVX NSCLC)?
Answer: > 100 µM

Question: And the TGI (NCI-H226 lung)?
Answer: 91.1 µM

Question: What about the TGI (UACC-62 melanoma) of the same compound?
Answer: > 100 µM

Question: What about the TGI (U251 CNS) of the same compound?
Answer: > 100 µM

Question: What about the TGI (OVCAR-3 ovarian) of the same compound?
Answer: > 100 µM

Question: And the TGI (HT29 colon)?
Answer: > 100 µM

Question: What about the TGI (SW-620 colon) of the same compound?
Answer: > 100 µM

Question: What about the TGI (SR leukemia) of the same compound?
Answer: > 100 µM

Question: What about the TGI (OVCAR-4 ovarian) of the same compound?
Answer: > 100 µM

Question: And the TGI (PC-3 prostate)?
Answer: > 100 µM

Question: What about the TGI (MOLT-4 leukemia) of the same compound?
Answer: > 100 µM

Question: What about the TGI (HCC-2998 colon) of the same compound?
Answer: > 100 µM

Question: Which TGI (SF-295 CNS) does the source give for CCOc1ccc(N=NC2C(=O)N(C(=O)CC(=O)Nc3ccc(C)cc3)N=C2C)cc1 (stereo not given) here?
Answer: 49.4 µM

Question: What about the TGI (MDA-MB-231 breast) of the same compound?
Answer: 35.8 µM

Question: What about the TGI (CCRF-CEM leukemia) of the same compound?
Answer: > 100 µM

Question: What about the TGI (DU-145 prostate) of the same compound?
Answer: > 100 µM

Question: What about the TGI (HL-60(TB) leukemia) of the same compound?
Answer: > 100 µM

Question: And the TGI (HCT-15 colon)?
Answer: > 100 µM

Question: What about the TGI (ACHN renal) of the same compound?
Answer: > 100 µM

Question: And the TGI (HOP-62 NSCLC)?
Answer: 34.3 µM

Question: What about the TGI (LOX IMVI melanoma) of the same compound?
Answer: 27.7 µM

Question: What about the TGI (SK-MEL-2 melanoma) of the same compound?
Answer: > 100 µM

Question: What about the TGI (SNB-19 CNS) of the same compound?
Answer: 51 µM

Question: And the TGI (KM12 colon)?
Answer: > 100 µM

Question: What about the TGI (HCT-116 colon) of the same compound?
Answer: 25.8 µM

Question: What about the TGI (CAKI-1 renal) of the same compound?
Answer: > 100 µM

Question: And the TGI (NCI/ADR-RES ovarian)?
Answer: 79.2 µM

Question: What about the TGI (UO-31 renal) of the same compound?
Answer: 78.7 µM

Question: And the TGI (NCI-H460 lung)?
Answer: 43.8 µM

Question: And the TGI (SF-539 CNS)?
Answer: 36.5 µM

Question: What about the TGI (IGROV1 ovarian) of the same compound?
Answer: > 100 µM

Question: What about the TGI (HS 578T breast) of the same compound?
Answer: 40.1 µM

Question: What about the TGI (COLO 205 colon) of the same compound?
Answer: > 100 µM

Question: And the TGI (MCF7 breast)?
Answer: > 100 µM

Question: What about the TGI (SF-268 CNS) of the same compound?
Answer: 75.2 µM

Question: And the TGI (MALME-3M melanoma)?
Answer: > 100 µM

Question: And the TGI (T-47D breast)?
Answer: > 100 µM

Question: What about the TGI (UACC-257 melanoma) of the same compound?
Answer: > 100 µM

Question: And the TGI (A549 NSCLC)?
Answer: > 100 µM

Question: And the TGI (SN12C renal)?
Answer: > 100 µM

Question: What about the TGI (BT-549 breast) of the same compound?
Answer: > 100 µM

Question: And the TGI (MDA-N)?
Answer: 13.9 µM

Question: What about the TGI (OVCAR-8 ovarian) of the same compound?
Answer: 31.2 µM

Question: And the TGI (TK-10 renal)?
Answer: 93.2 µM

Question: And the TGI (SK-MEL-5 melanoma)?
Answer: > 100 µM

Question: What about the TGI (HOP-92 NSCLC) of the same compound?
Answer: 39.9 µM

Question: What about the TGI (M14 melanoma) of the same compound?
Answer: > 100 µM

Question: What about the TGI (SK-MEL-28 melanoma) of the same compound?
Answer: > 100 µM

Question: And the TGI (NCI-H23 lung)?
Answer: > 100 µM

Question: And the TGI (MDA-MB-435)?
Answer: 10.9 µM

Question: What about the TGI (OVCAR-5 ovarian) of the same compound?
Answer: > 100 µM

Question: What about the TGI (SNB-75 CNS) of the same compound?
Answer: 23.2 µM

Question: What about the TGI (786-0 renal) of the same compound?
Answer: 29.5 µM

Question: What about the TGI (EKVX NSCLC) of the same compound?
Answer: 40.9 µM

Question: And the TGI (NCI-H226 lung)?
Answer: 88.4 µM

Question: And the TGI (UACC-62 melanoma)?
Answer: 52.6 µM

Question: What about the TGI (U251 CNS) of the same compound?
Answer: 32.2 µM

Question: What about the TGI (OVCAR-3 ovarian) of the same compound?
Answer: > 100 µM

Question: What about the TGI (HT29 colon) of the same compound?
Answer: > 100 µM

Question: And the TGI (A498 renal)?
Answer: 52.5 µM

Question: And the TGI (SW-620 colon)?
Answer: > 100 µM

Question: What about the TGI (SR leukemia) of the same compound?
Answer: > 100 µM

Question: And the TGI (OVCAR-4 ovarian)?
Answer: 95.7 µM

Question: What about the TGI (PC-3 prostate) of the same compound?
Answer: > 100 µM

Question: What about the TGI (MOLT-4 leukemia) of the same compound?
Answer: > 100 µM

Question: And the TGI (HCC-2998 colon)?
Answer: > 100 µM
